The values below come from ChEMBL document CHEMBL1155191, “Simple dihydrosphyngosine analogues with potent activity against MDR-Mycobacterium tuberculosis” (2009).

Values after ≈ are worked out from the molar mass of the structure shown.

What all share (format): functional
Experiment [1] concerns Mycobacterium tuberculosis. Kind of experiment: Antimycobacterial activity against multidrug-resistant Mycobacterium tuberculosis 528 after 5 to 7 days by microplate alamar blue assay. On the technique in general: Alamar Blue is a resazurin reagent that responds to reducing activity.
Experiment [2] deals with Mycobacterium tuberculosis. Kind of experiment: Antimycobacterial activity against multidrug-resistant Mycobacterium tuberculosis 160 after 5 to 7 days by microplate alamar blue assay.
The test system of experiment [3] is Mycobacterium tuberculosis. Kind of experiment: Antimycobacterial activity against multidrug-resistant, ethambutol-sensitive Mycobacterium tuberculosis 401 after 5 to 7 days by microplate alamar blue assay.
The subject of experiment [4] is Mycobacterium tuberculosis. Kind of experiment: Antimycobacterial activity against multidrug-resistant, ethambutol-sensitive Mycobacterium tuberculosis 494 after 5 to 7 days by microplate alamar blue assay.
For experiment [5], the system named is Mycobacterium tuberculosis. Kind of experiment: Antimycobacterial activity against multidrug-resistant Mycobacterium tuberculosis 411 after 5 to 7 days by microplate alamar blue assay.
The subject of experiment [6] is Mycobacterium tuberculosis. Kind of experiment: Antimycobacterial activity against multidrug-resistant Mycobacterium tuberculosis 331 after 5 to 7 days by microplate alamar blue assay.
Experiment [7] relates to Mycobacterium tuberculosis. Kind of experiment: Antimycobacterial activity against multidrug-resistant, streptomycin-sensitive Mycobacterium tuberculosis 429 after 5 to 7 days by microplate alamar blue assay.
Experiment [8] has as its system Mycobacterium tuberculosis. Kind of experiment: Antimycobacterial activity against multidrug-resistant, pyrazinamide-sensitive Mycobacterium tuberculosis 366 after 5 to 7 days by microplate alamar blue assay.
Experiment [9] concerns Mycobacterium tuberculosis. Kind of experiment: Antimycobacterial activity against streptomycin, rifampicin, pyrazinamide-sensitive isoniazid, ethambutol-resistant Mycobacterium tuberculosis 363 after 5 to 7 days by microplate alamar blue assay.
Experiment [10] deals with Mycobacterium tuberculosis. Kind of experiment: Antimycobacterial activity against multidrug-resistant Mycobacterium tuberculosis 332 after 5 to 7 days by microplate alamar blue assay.
Experiment [11] relates to Mycobacterium tuberculosis. Kind of experiment: Antimycobacterial activity against multidrug-resistant Mycobacterium tuberculosis 535 after 5 to 7 days by microplate alamar blue assay.

`CCCCCCCCCCCCCCC(N)CN(CC)CC` (stereo not drawn): the MIC in [1], in [2], in experiment [3], in experiment [4], in experiment [5] and in experiment [6] was 40 µM (≈ 12.5 µg/mL) each time. For the same molecule, the MIC came to 40 µM (≈ 12.5 µg/mL) in experiment [7]; 20 µM (≈ 6.25 µg/mL) in experiment [8]; 40 µM (≈ 12.5 µg/mL) in experiment [9]; 40 µM (≈ 12.5 µg/mL) in experiment [10]; 40 µM (≈ 12.5 µg/mL) in experiment [11].
On to `CCCCCCCCCCCCCCC(COCc1ccccc1)N(CC)CC` (stereo not drawn), for which the MIC is 15.5 µM (≈ 6.26 µg/mL) in [1]; 7.7 µM (≈ 3.11 µg/mL) in experiment [2]; 7.7 µM (≈ 3.11 µg/mL) in experiment [3]; 7.7 µM (≈ 3.11 µg/mL) in experiment [4]; 7.7 µM (≈ 3.11 µg/mL) in experiment [5]; 15.5 µM (≈ 6.26 µg/mL) in experiment [6]. Besides, the MIC in [7] was 7.7 µM (≈ 3.11 µg/mL); in [8] it was 3.9 µM (≈ 1.57 µg/mL); in [9] it was 3.9 µM (≈ 1.57 µg/mL); in experiment [10] it was 1.9 µM (≈ 0.767 µg/mL); in [11], 3.9 µM (≈ 1.57 µg/mL).
As to `CCCCCCCCCCCCCCC(N)COCc1ccccc1` (stereo not drawn), the minimal inhibitory concentration (MIC) in [1] was determined as 18 µM (≈ 6.26 µg/mL); in experiment [2], 9 µM (≈ 3.13 µg/mL); in [3] it was 4.5 µM (≈ 1.56 µg/mL); in [4] it was 9 µM (≈ 3.13 µg/mL); in experiment [5], 4.5 µM (≈ 1.56 µg/mL); in experiment [6], 9 µM (≈ 3.13 µg/mL). Besides, the MIC in [7] was found to be 9 µM (≈ 3.13 µg/mL); in experiment [8] it was 4.5 µM (≈ 1.56 µg/mL); in experiment [9], 18 µM (≈ 6.26 µg/mL); in experiment [10], 36 µM (≈ 12.5 µg/mL); in experiment [11] it was 18 µM (≈ 6.26 µg/mL).

The term MIC denotes the lowest concentration that inhibits growth of the organism. Low readings indicate a more susceptible organism, high ones a less susceptible organism.
